For one data set, the system named is MRSA OC 2878. Description: MIC by microdilution broth method (NCCLS), MRSA OC 2878. It counts as cell-based, Staphylococcus aureus. As to conditions: Staphylococcus aureus, MRSA, cation adjusted Mueller-Hinton broth, 35° C., 16-20 hours, read-out: MIC (μg/mL) MRSA OC 2878. The protocol:
(§1) Minimal inhibitory concentration (MIC) has been an indicator of in vitro antibacterial activity widely used in the art. The in vitro antimicrobial activity of the compounds was determined by the microdilution broth method following the test method from the National Committee for Laboratory Standards (NCCLS). This method is described in the NCCLS Document M7-A4, Vol. 17, No.2, “Methods for Dilution Antimicrobial Susceptibility Test for Bacteria that Grow Aerobically-Fourth Edition”, which is incorporated herein by reference.
(§2) In this method two-fold serial dilutions of drug in cation adjusted Mueller-Hinton broth are added to wells in microdilution trays. The test organisms are prepared by adjusting the turbidity of actively growing broth cultures so that the final concentration of test organism after it is added to the wells is approximately 5×10^4 CFU/well.
(§3) Following inoculation of the microdilution trays, the trays are incubated at 35° C. for 16-20 hours and then read. […] The amount of growth in the wells containing the test compound is compared with the amount of growth in the growth-control wells (no test compound) used in each tray. As set forth in Table 1, compounds of the present invention were tested against a variety of Gram positive and Gram negative pathogenic bacteria resulting in a range of activities, from 1 to ≧128 μg/mL depending on the organism tested.

Another data set deals with E. faecium OC3312. Kind of data set: MIC by microdilution broth method (NCCLS), E. faecium OC3312. The class given is cell-based. Particulars: Enterococcus faecium, OC3312, microdilution broth, cation adjusted Mueller-Hinton broth, 35° C., 16-20 hours; read-out: MIC (μg/mL) E. faecium OC3312. The protocol: as §1, §2, §3
A general note: In broth dilution the organism is exposed to a series of concentrations in liquid medium.

The next data set has as its system S. aureus. Kind of data set: MIC by microdilution broth method (NCCLS), S. aureus Broth. It counts as cell-based. As to conditions: Staphylococcus aureus, cation adjusted Mueller-Hinton broth, 35° C., 16-20 hours, read-out: MIC (μg/mL) S. aureus Broth. The method, then:
as §1, §2, §3

The results in this text go back to US20020103377A1, “Piperidinyloxy and pyrrolidinyloxy oxazolidinone antibacterials” (priority 1999, published 2002).

Values after ≈ are worked out from the molar mass of the structure shown. Where only a bound is given, the exact number is not on record here.

In the case of `CC(=O)NC[C@H]1CN(c2ccc(OC3CCN(C(=O)CCCc4cccnc4)CC3)c(F)c2)C(=O)O1` [Compound 26, (S)-N-[[3-[3-Fluoro-4-{N-(4-pyridin-3-yl-butyryl)piperidinyl-4-oxy}phenyl]-2-oxo-5-oxazolidinyl]methyl]acetamide], the melting point (usually the temperature of the solid-liquid transition) fell in the range of 42 to 45 °C. Moreover, the MIC in the data set on MRSA OC 2878 came out at 8 µg/mL (≈ 16 µM). Besides, the MIC with E. faecium OC3312 stood at 16 µg/mL (≈ 32.1 µM). Besides, the MIC with S. aureus came out at 16 µg/mL (≈ 32.1 µM).

`CC(=O)NC[C@H]1CN(c2ccc(OC3CCN(C(=O)COC(C)=O)CC3)c(F)c2)C(=O)O1` [Compound 53, (S)-N-[[3-[3-Fluoro-4-{N-(acetoxyacetyl)piperidinyl-4-oxy}phenyl]-2-oxo-5-oxazolidinyl]methyl]acetamide] displayed a melting point of 146 to 147.5 °C. For the same compound, in the data set with MRSA OC 2878, the MIC turned out to be 8 µg/mL (≈ 17.7 µM). Further, in the data set on E. faecium OC3312, the MIC was 16 µg/mL (≈ 35.4 µM). Moreover, in the data set on S. aureus, the MIC stood at 8 µg/mL (≈ 17.7 µM).

Turning to `CC(=O)NC[C@H]1CN(c2ccc(OC3CCN(C(=O)OC(C)(C)C)CC3)nc2)C(=O)O1` [Compound 41, (5S)-3-[6-{N-(t-Butoxycarbonyl)piperidinyl-4-oxy}-pyridin-3-yl]-5-methylacetamide-oxazolidin-2-one], the melting point is 99 to 101 °C. The MIC in the data set with MRSA OC 2878 worked out at 64 µg/mL (≈ 147 µM). The MIC with E. faecium OC3312 was over 128 µg/mL. In addition, the MIC with S. aureus turned out to be 128 µg/mL (≈ 295 µM).

For `CC(=O)NC[C@H]1CN(c2ccc(OC3CCN(C(=O)c4ccccc4)CC3)nc2)C(=O)O1` [Compound 46, (5S)-3-[6-{N-(Benzoyl)piperidinyl-4-oxy}-pyridin-3-yl]-5-methylacetamide-oxazolidin-2-one], the melting point lay within 180 to 182 °C. Besides, the MIC in the data set on MRSA OC 2878 was found to be 64 µg/mL (≈ 146 µM). In addition, the MIC in the data set on E. faecium OC3312 was over 128 µg/mL. In addition, the MIC in the data set on S. aureus was 64 µg/mL (≈ 146 µM).

For `CC(=O)NC[C@H]1CN(c2ccc(OC3CCN(C(=O)c4cccc(C#N)c4)CC3)c(F)c2)C(=O)O1` [Compound 12, (S)-N-[[3-[3-Fluoro-4-{N-(3-cyanobenzoyl)piperidinyl-4-oxy}phenyl]-2-oxo-5-oxazolidinyl]methyl]acetamide], the melting point lay within 82 to 85 °C. The MIC in the data set with MRSA OC 2878 is 8 µg/mL (≈ 16.6 µM). Also, the MIC in the data set on E. faecium OC3312 was 16 µg/mL (≈ 33.3 µM). Besides, the MIC in the data set with S. aureus is 8 µg/mL (≈ 16.6 µM).

For the compound `CC(=O)NC[C@H]1CN(c2ccc(OC3CCN(C(=O)c4ccc(C#N)cc4)CC3)c(F)c2)C(=O)O1` [Compound 11, (S)-N-[[3-[3-Fluoro-4-{N-(4-cyanobenzoyl)piperidinyl-4-oxy}phenyl]-2-oxo-5-oxazolidinyl]methyl]acetamide], the melting point is 75 to 78 °C. Besides, in the data set with MRSA OC 2878, the MIC was 8 µg/mL (≈ 16.6 µM). The MIC in the data set with E. faecium OC3312 was found to be 16 µg/mL (≈ 33.3 µM). Also, the MIC with S. aureus came to 16 µg/mL (≈ 33.3 µM).

As for `CC(=O)NCC(=O)N1CCC(Oc2ccc(N3C[C@H](CNC(C)=O)OC3=O)cc2F)CC1` [Compound 18, (S)-N-[[3-[3-Fluoro-4-{N-(α-N-acetylaminoacetyl)piperidinyl-4-oxy}phenyl]-2-oxo-5-oxazolidinyl]methyl]acetamide], the melting point was 66 to 68 °C. Besides, the MIC in the data set on MRSA OC 2878 was 16 µg/mL (≈ 35.5 µM). In addition, the MIC with E. faecium OC3312 was 64 µg/mL (≈ 142 µM). Besides, in the data set with S. aureus, the MIC was 8 µg/mL (≈ 17.8 µM).

`CC(=O)NC[C@H]1CN(c2ccc(OC3CCN(C(=O)CNS(C)(=O)=O)CC3)c(F)c2)C(=O)O1` [Compound 17, (S)-N-[[3-[3-Fluoro-4-{N-(α-methylsulfonylaminoacetyl)piperidinyl-4-oxy}phenyl]-2-oxo-5-oxazolidinyl]methyl]acetamide] registered a melting point of 78 to 82 °C. Moreover, the MIC in the data set on MRSA OC 2878 came to 16 µg/mL (≈ 32.9 µM). For the same compound, the MIC in the data set with E. faecium OC3312 was 16 µg/mL (≈ 32.9 µM). In addition, the MIC with S. aureus was 8 µg/mL (≈ 16.4 µM).

`CC(=O)NC[C@H]1CN(c2ccc(OC3CCCN(c4ncccn4)C3)c(F)c2)C(=O)O1` (stereo partly drawn) [Compound 38, (S)-N-[[3-[3-Fluoro-4-{N-(2-pyrimidinyl)piperidinyl-3-oxy}phenyl]-2-oxo-5-oxazolidinyl]methyl]acetamide] registered a melting point of 130 to 131 °C. For the same compound, the MIC in the data set on MRSA OC 2878 worked out at 8 µg/mL (≈ 18.6 µM). Besides, the MIC in the data set with E. faecium OC3312 is 32 µg/mL (≈ 74.5 µM). In the data set on S. aureus, the MIC amounted to 16 µg/mL (≈ 37.3 µM).

Consider `CC(=O)NC[C@H]1CN(c2ccc(OC3CCNCC3)c(F)c2)C(=O)O1` [Compound 2, (S)-N-[[3-[3-Fluoro-4-{piperidinyl-4-oxy}phenyl]-2-oxo-5-oxazolidinyl]methyl]acetamide], for which the melting point fell in the range of 55 to 59 °C. The MIC in the data set with MRSA OC 2878 is 32 µg/mL (≈ 91.1 µM). For the same compound, the MIC in the data set with E. faecium OC3312 was found to be 8 µg/mL (≈ 22.8 µM). The MIC in the data set on S. aureus is 8 µg/mL (≈ 22.8 µM).

For `CC(=O)NC[C@H]1CN(c2ccc(OC3CCN(c4ncccn4)CC3)c(F)c2)C(=O)O1` [Compound 9, (S)-N-[[3-[3-Fluoro-4-{N-(2-pyrimidinyl)piperidinyl-4-oxy}phenyl]-2-oxo-5-oxazolidinyl]methyl]acetamide], the melting point lay within 121 to 123 °C. In the data set on MRSA OC 2878, the MIC worked out at 4 µg/mL (≈ 9.31 µM). Also, the MIC in the data set on E. faecium OC3312 came out at 8 µg/mL (≈ 18.6 µM). Moreover, in the data set with S. aureus, the MIC was determined as 4 µg/mL (≈ 9.31 µM).

Compound `CC(=O)NC[C@H]1CN(c2ccc(OC3CCN(c4ccc(C#N)cn4)CC3)c(F)c2)C(=O)O1` [Compound 14, (S)-N-[[3-[3-Fluoro-4-{N-(5-cyano-2-pyridyl)piperidinyl-4-oxy}phenyl]-2-oxo-5-oxazolidinyl]methyl]acetamide] registered a melting point of 78 to 84 °C. The MIC in the data set with MRSA OC 2878 came out at 4 µg/mL (≈ 8.82 µM). Besides, the MIC in the data set on E. faecium OC3312 stood at 8 µg/mL (≈ 17.6 µM). In addition, the MIC in the data set on S. aureus was 4 µg/mL (≈ 8.82 µM).

`CC(=O)NC[C@H]1CN(c2ccc(OC3CN(C(=O)COCc4ccccc4)C3)c(F)c2)C(=O)O1` [Compound 58, (S)-N-[[3-[3-Fluoro-4-{N-(benzyloxyacetyl)azetidinyl-3-oxy}phenyl]-2-oxo-5-oxazolidinyl]methyl]acetamide]: the melting point was 119 to 121 °C. In addition, the MIC in the data set with MRSA OC 2878 is 4 µg/mL (≈ 8.48 µM). Further, the MIC in the data set with E. faecium OC3312 came to 4 µg/mL (≈ 8.48 µM). In addition, the MIC in the data set on S. aureus worked out at 8 µg/mL (≈ 17 µM).

Take `CC(=O)NC[C@H]1CN(c2ccc(OC3CCN(C(=O)N(C)C)CC3)c(F)c2)C(=O)O1` [Compound 24, (S)-N-[[3-[3-Fluoro-4-{N-(dimethylcarbamoyl)piperidinyl-4-oxy}phenyl]-2-oxo-5-oxazolidinyl]methyl]acetamide]: the melting point was in the range of 129 to 131 °C. The MIC in the data set on MRSA OC 2878 worked out at 16 µg/mL (≈ 37.9 µM). In addition, the MIC in the data set with E. faecium OC3312 came out at 32 µg/mL (≈ 75.7 µM). Also, in the data set with S. aureus, the MIC was found to be 8 µg/mL (≈ 18.9 µM).

`CC(=O)NC[C@H]1CN(c2ccc(OC3CCN(C(=O)N(C)C)CC3)nc2)C(=O)O1` [Compound 49, (5S)-3-[6-{N-(Dimethylcarbamoyl)piperidinyl-4-oxy}-pyridin-3-yl]-5-methylacetamide-oxazolidin-2-one]: the MIC was 128 µg/mL (≈ 316 µM) in the data set with MRSA OC 2878, over 128 µg/mL in the data set with E. faecium OC3312 and over 64 µg/mL in the data set on S. aureus.

As to `CC(=O)NC[C@H]1CN(c2ccc(OC3CN(S(C)(=O)=O)C3)c(F)c2)C(=O)O1` [Compound 57, (S)-N-[[3-[3-Fluoro-4-{N-(methanesulfonyl)azetidinyl-3-oxy}phenyl]-2-oxo-5-oxazolidinyl]methyl]acetamide], the MIC in the data set on MRSA OC 2878, in the data set with E. faecium OC3312 and in the data set on S. aureus was 16 µg/mL (≈ 39.9 µM) in each case.

As for `CC(=O)NC[C@H]1CN(c2ccc(OC3CCCN(C(C)=O)C3)c(F)c2)C(=O)O1` (stereo partly drawn) [Compound 37, (S)-N-[[3-[3-Fluoro-4-{N-(acetyl)piperidinyl-3-oxy}phenyl]-2-oxo-5-oxazolidinyl]methyl]acetamide], the MIC in the data set with MRSA OC 2878 was 8 µg/mL (≈ 20.3 µM); in the data set with E. faecium OC3312 it was 16 µg/mL (≈ 40.7 µM); with S. aureus, 8 µg/mL (≈ 20.3 µM).
